The values that follow come from US12678412B2, “Substituted tolans for the modulation of microbial colonization” (BioMendics, LLC, priority 2017, dated 2026).

The subject of assay [1] is wild type E. Coli. The following applies: previous data; cited from earlier work.
The test system of assay [2] is S. typhimurium TA100. The assay is described as follows: Dose range finding colony forming assay, strain TA100 with metabolic activation. It counts as cell-based. To be noted: positive control, 2 μg/plate. The protocol:
(§1) A series of dose range finding assays were performed with five bacterial strains, S. typhimurium TA97a, TA98, TA100, TA1535, and E. coli WP2 uvrA pKM101, with and without metabolic activation at three plates per dose. The following doses, along with positive and negative controls, were tested: 5000, 2500, 1250, 500, 250, 125, 50, 20, 10, 5, 2, 1, and 0.2 μg/plate. The plates were evaluated for toxicity (a decrease in plate counts with increasing dose and/or a visible thinning of the background lawn) and for precipitation of the test article. Metabolic activation was included in some samples by adding phenobarbital/benzoflavone-induced rat liver S9 fractions with cofactors (S9 mix). Prior to use, freshly thawed aliquots of rat liver S9 were mixed with a sterile cofactor mix. The S9 mix contains a 10% liver S9 concentration and was refrigerated or stored on ice until used. When testing with metabolic activation, the S9 mix was used in the assay tube in place of phosphate buffer.
(§2) Dosing formulations were prepared to deliver all doses in a constant volume of 0.1 mL. The highest dose was prepared from test article weighed to the nearest 0.1 mg and the remaining formulations were prepared as serial dilutions from the high dose stock formulation. Using a permanent marking pen or computer printed labels, assay plates were labeled with the project and study numbers and the date. Assay plates and tubes were labeled with a unique identifier, which was used to match the assay tubes with the properly identified minimal glucose agar plate.
(§3) The pre-incubation method was used to perform the assay. The assay mix consisted of 0.1 mL of the test article formulation or control article, 0.5 mL S9 mix or phosphate buffer, and 0.1 mL of bacterial culture. Assay tubes were incubated at 37±1° C. with gentle agitation for 20±1 minutes, then 2.0-2.5 mL top agar was added to the assay mix and the top agar/assay mix poured onto appropriately labeled minimal glucose agar plates. Once the top agar hardened, the plates were inverted and incubated at 37±1° C. for 48±2 hours. Plates were counted with the Sorcerer (v. 2.2)/Ames Study Manager (v. 1.2.4) system from Perceptive Instruments (Suffolk, UK). With this system, plate counts are automatically transferred from the plate imager (Sorcerer) to a Study Manager spreadsheet, and the data are stored in a secure manner on an Oracle database. Some plates were hand counted, e.g., if sample precipitate interferes with automatic counting or toxicity results in the formation of microcolonies, in which case, counts for these plates were entered into the spreadsheet manually. Plates were scored also with the extent of colonization by a post fix code.

Assay [3] has as its system NEB 5 α competent E. coli. The assay can be described thus: Bacterial colony forming assay (Examples 6-9). Format: cell-based. The following applies: alcohol gel. The protocol: NEB 5 α competent E. coli were retrieved from frozen cultures and grown overnight in a bacterial incubator at 37° C. Proliferating cultures of bacteria were used in a colony forming assay by adding 25 μL of bacteria from the overnight culture to 10 mL of fresh Lysogeny Broth (LB; Bertani, G. (2004). “Lysogeny at mid-twentieth century: P1, P2, and other experimental systems”. Journal of Bacteriology. 186 (3): 595-600. PMC 321500. PMID 14729683. doi:10.1128/JR.186.3.595-600.2004). 1 mL of this diluted bacteria was added to various dilutions of formulations of substituted tolan compounds as described in Table C, below and in charts of the corresponding Figures.
One mL of each formulation was mixed with 1 mL of diluted bacteria in LB and put onto agar plates. Alcohol gels were allowed to dry and incubated overnight for 16-18 hrs. Control plates consisted of 2 mL alcohol gel plus 1 mL diluted bacteria, resulting in a colony count of less than 10 colonies, a 1 mL alcohol gel plus 1 mL diluted bacteria, resulting in a partial lawn of bacteria (colonies were too close to count appropriately), 1 mL diluted bacteria alone, resulting in a full lawn of bacteria (no distinguishable colonies), and an appropriate dilution of PEG-400 and HPβCD into 1 mL of alcohol gel plus 1 mL diluted bacteria, resulting in a lawn of bacteria. Plate area was then selected and the Image J colony counter was used to obtain colony counts (Size (pixels squared) 5-1000 and circularity 0.5-1).

The subject of assay [4] is S. typhimurium TA97a. The assay is described as follows: Dose range finding colony forming assay, strain TA97a with metabolic activation. It counts as cell-based. The following applies: positive control, 2.5 μg/plate. The protocol: as §1, §2, §3
In assay [5] the test system is S. typhimurium TA98. The assay is described as follows: Dose range finding colony forming assay, strain TA98 with metabolic activation. The following applies: positive control, 2 μg/plate. It counts as cell-based. The method, then:
as §1, §2, §3

The subject of assay [6] is S. typhimurium TA1535. The assay is described as follows: Dose range finding colony forming assay, strain TA1535 without metabolic activation. Format: cell-based. The following applies: positive control, 1 μg/plate. The protocol:
as §1, §2, §3

For assay [7], the system named is Methicillin Resistant Staphylococcus aureus (MRSA USA 300). The assay is described as follows: Colony forming assay, spread plate, MRSA USA 300. It counts as cell-based. The following applies: Tobramycin 600 μg/mL; compared to the untreated control; 24 h; FIGS. 6A-6B. The protocol:
A fresh culture of pathogenic isolate was used in these examples. The bacterial strains used were Methicillin Resistant Staphylococcus aureus (MRSA USA 300), Pseudomonas aeruginosa ATCC 27312, and Candida albicans ATCC 64550.
FIG. 5 illustrates the spread plate method used in these examples. In sum, agar plates were made, bacteria were diluted to 10^6 or 10^8 CFU/mL, bacteria and drug were mixed together and then plated. Glass spreading beads were used because they give a better bacterial spread. Plates were incubated for 24 hrs then the colonies that formed were counted.
Proliferating cultures of Methicillin Resistant Staphylococcus aureus (MRSA, USA 300) were used in a colony forming assay. Freeze-dried bacteria culture of MRSA was recovered by swabbing a 3-cm diameter growth area and resuspending it to obtain a final inoculum suspension of approximately 10^8 CFU/mL. The concentration was confirmed using historical optical density measurements. The total compound BM3103 was suspended in a 70% v/v alcohol gel formulation (Formulation A) before the introduction of bacteria, with the vehicle consisting of solely the 70% v/v alcohol gel. MRSA at 10^8 CFU/mL was challenged with equal parts of a high, medium, and low dose of BM3103, vehicle formulation, positive control (Tobramycin, 600 μg/mL), or untreated control (phosphate buffered saline). The inoculum was plated on Tryptic Soy Broth plates at 37° C. for 24 h. Plates were photographed and counted. The treatment for each experiment was done in triplicate, and the experiment was repeated three times, for a total of 9 plates per group.
Colony counts for each treatment were tabulated and the Log of the colony forming units/mL (Log CFU/mL) was determined. The mean and standard deviation of the Log CFU/mL were calculated for each treatment. A one-way analysis of variance was performed at a 95% confidence interval.

For assay [8], the system named is Methicillin Resistant Staphylococcus aureus (MRSA, USA 400). The assay is described as follows: Colony forming assay, 24 h plate assay, MRSA USA 400. Format: cell-based. To be noted: Tobramycin 600 μg/mL, compared to the vehicle control, FIG. 9. The protocol: Proliferating cultures of Methicillin Resistant Staphylococcus aureus (MRSA, USA 400) were used in a colony forming assay. Frozen stock cultures of MRSA USA 400 were thawed and grown overnight in tryptic soy broth (TSB) with shaking at 37° C. The overnight culture (0.5-1.0 mL) was added to 100 mL TSB and grown at 37° C. with shaking and monitored for an optical density of 0.55-0.60 in order to obtain a final inoculum suspension of approximately 10^8 CFU/mL.
BM3103 was suspended into a 70% v/v alcohol gel formulation to acquire the desired % w/v tested within the example. Each concentration was vortexed thoroughly until dissolved. Initial tested concentrations of BM3103 were 1, 0.5, and 0.1% w/v. These concentrations and the alcohol gel vehicle were mixed with equal parts of the 10^8 CFU/mL inoculum to obtain a final concentration of 0.5, 0.25, and 0.05% (22 mM, 11 mM, and 2 mM) BM3103. Tobramycin (600 μg/mL) served as the positive control. Vehicle and BM3103 formulations contained matching final concentration of 35% v/v alcohol.
BM3103 was dissolved into Transcutol (diethylene glycol monoethyl ether) at 2.5% w/v and vortexed until dissolved. This concentration was then serial diluted to achieve the remaining concentrations tested. Before plating, 100 μL of the final inoculum (10^8 CFU/mL) was mixed with 20 μL TSB broth and 80 μL of BM3103 doses or vehicle. Tobramycin, 600 μg/mL, served as the positive control. The final plating concentrations for BM3103 were 1, 0.5, 0.25, and 0.1% w/v (44 mM, 22 mM, 11 mM, 4 mM) BM3103. Vehicle and BM3103 formulations contained matching final concentration of 40% v/v Transcutol.
The above listed formulations combined with the MRSA inoculum were plated onto TSB agar plates. The plates were grown at 37° C. for 24 h, imaged, and the bacteria colonies were counted. The experiment was done in triplicate at each concentration level described above. Colony counts for each treatment were tabulated and the Log of the colony forming units/mL (Log CFU/mL) were determined. The mean and the standard error of the mean were calculated for each treatment.

With `Oc1ccc(C#Cc2cc(O)cc(O)c2)cc1` [3,5,4′-trihydroxytolan], in assay [1], the “Effectiveness against wild type E. Coli” value is on record as “ineffective”.
With `c1ccc2c(c1)cc1ccc3cccc4ccc2c1c34` [BAP_Moltox, Benzo(a) pyrene_Moltox, reference compound], the Colony forming units/plate in assay [2] is listed as 806.0 colony forming units/plate.
As for `Oc1ccc(C#Cc2ccc(C(F)(F)F)cc2)cc1` [BM3213, 4-hydroxy-4′-(trifluoro)methyltolan], the “Inhibition of E. coli growth” value in assay [3] (2.23 mM, FIG. 3) is listed as “very inhibitory to E. coli”; in assay [3] (concentrations 10 fold diluted from 2.23 mM, FIG. 3), “less so”.
For `COc1ccc(C#Cc2ccc(OC)c(OC)c2)cc1` [BM3303, 3,4,4′-trimethoxytolan], the “Inhibition of E. coli growth” value in assay [3] (1.11 mM, FIG. 4) is recorded as “an inhibitor to E. coli”; in assay [3] (concentrations 10-fold diluted from 1.11 mM, FIG. 4) it was “less so”. In addition, in assay [3] (FIG. 4), the “Dose dependence of inhibition of E. coli” value is “dose dependent inhibitory effects”.
For `Nc1ccc2cc3ccccc3cc2c1` [Compound 2A, 2-Aminoanthracene, reference compound], the Colony forming units/plate is listed as 3241.3 colony forming units/plate in assay [4] and 2315.0 colony forming units/plate in assay [5].
As to `[N-]=[N+]=[N-]` [NaN3, Sodium Azide, reference compound], the Colony forming units/plate in assay [6] was 714.7 colony forming units/plate.
With `NC[C@H]1O[C@H](O[C@H]2[C@H](O)[C@@H](O[C@H]3O[C@H](CO)[C@@H](O)[C@H](N)[C@H]3O)[C@H](N)C[C@@H]2N)[C@H](N)C[C@@H]1O` [Tobramycin, reference compound], the “Reduction of MRSA USA 300 counts” value in assay [7] is listed as 6 fold. Also, the “Reduction of MRSA USA 400 counts” value in assay [8] was found to be 4 fold.
